The text below walks through data of patent US9795570B2, “Modulation of macrophage phenotype by emodin” (University of South Carolina, priority 2016, dated 2017).

One test deals with EO771 tumors. As to the kind of experiment: EO771 breast tumor model in C57BL/6 mice. Format: in vivo. The procedure:
(§1) C57BL/6 and BALB/c mice (8-12 weeks, female) were purchased from Jackson Labs (Bar Harbor, Me.). They were housed at the University of South Carolina Animal Research Facility, and all procedures were approved by the Institutional Animal Care and Use Committee. EO771 or 4T1 cells (2×10^5) in 20 μL of PBS were injected into the 4th pair of mammary glands on C57BL/6 mice or BALB/C, respectively, on Day 0. Starting on Day 1, emodin (40 mg/kg) or vehicle (2% DMSO) was injected intraperitoneally in 1 ml PBS once daily. The tumor size was measured using a caliper every 2-4 days, and the tumor volume was calculated using a formula: V (mm^3)=L (major axis)×W^2 (minor axis)/2. Mice were sacrificed at various time points.
(§2) At sacrifice, tumors were embedded in OCT. They were then cut into 8 μm thick frozen sections and placed on slides. For immunohistochemistry staining, the sections were fixed with 4% paraformaldehyde for 10 min, and then blocked with 0.01 M glycine containing 0.1% Triton x-100. Next, the sections were blocked with 5% BSA. They were then incubated in primary antibody overnight at 4° C.: anti-F4/80 (1:50, Biolegend), anti-pSTAT6 (1:50, Cell Signaling), or anti-C/EBPβ (1:50, Santa Cruz). The sections were washed with PBS and then incubated with secondary antibodies for 1 h at room temperature. The sections were then stained with DAPI (1 μg/mL) and coverslipped with DABCO. Slides were imaged using a Zeiss LSM 510 Confocal microscope (Zeiss, Peabody, Mass.). For quantitative analysis, the number of positive cells was manually counted in six random fields of view per section. CD31 staining was performed according to standard methodology. Slides were imaged on a Nikon ECLIPSE E600 microscope (Nikon, Melville, N.Y.) at 200× magnification (10 fields per section). The integrated optical density (IOD) of CD31 was quantified using Image-Pro Plus software.
(§3) Macrophages or T cells were isolated from 4T1 tumors from mice sacrificed at 6 weeks post implantation or from EO771 tumors 5 weeks post implantation, using EasySep™ Mouse PE Positive Selection Kit (Stem Cell Technologies, Vancouver, BC). For cell isolation, 1×10^7-1×10^8 cells were incubated with 20 μL PE conjugated anti-F4/80 (Biolegend) for macrophages or 20 μL PE conjugated anti-CD3 for T cells and 50 μL microbeads. The T cells and macrophages were lysed in Qiazol and used for RT-PCR analysis. For ChIP assays, 5-10×10^6 macrophages were fixed in 1% formaldehyde.

For test [1], the system named is 4T1 cells. Nature of the test: Macrophage migration toward conditioned medium of emodin-treated tumor cells. Format: cell-based, mouse. As to conditions: increasing concentrations of emodin, 24 h treatment. The procedure: EO771 or 4T1 cells were treated with 0-50 μM emodin for 24 h. The cells were then washed multiple times with PBS, further cultured, and TCM was collected. The TCM was placed in the bottom chamber of transwell inserts, and 2×10^5 macrophages were seeded into the top chamber in SF DMEM. The cells were incubated at 37° C. with 5% CO2 for 4 h. The membranes were then fixed with 4% paraformaldehyde for 10 min. The cells were removed from the top chamber using cotton swabs, and the cells on the bottom chamber were stained with DAPI (1 μg/mL). The inserts were then cut out, mounted onto slides, and imaged under a Nikon Eclipse E-600 fluorescence microscope (Nikon Inc. Melville, N.Y.) at 20× magnification (5 fields/insert). DAPI stained cells were quantified using ImagePro Plus software.

The next test concerns 4T1 tumors. As to the kind of experiment: 4T1 breast tumor model in BALB/c mice. In kind it is in vivo. The procedure:
as §1
The tumor draining lymph nodes and tumors were collected, and cell populations were analyzed using flow cytometry. Briefly, cells were stained with anti-CD3 FITC, anti-CD4 APC or anti-CD8 APC, and anti-CD25 PE (Biolegend) in PBS containing 2% FBS for 30 min at 4° C. Samples were washed twice with staining buffer and analyzed by flow cytometry using a BD FACS flow cytometer and CXP software version 2.2 (BD Biosciences, San Jose, Calif.). Data were collected for 20,000 live events per sample.
as §2, §3
Macrophages were fixed in 1% formaldehyde. Excess formaldehyde was quenched with glycine, and the cells were collected in PBS by scraping. The cells were lysed (0.5% IGEPAL, 4 mM HEPES), and the nuclei were resuspended in nuclear lysis buffer (1% SDS, 10 mM EDTA, and 50 mM Tris, pH 8.1). The DNA was sheared by sonication using a Diagnode Bioruptor Pico (Diagenode, Denville, N.J.) for 25 cycles of 30 s on/30 s off. Then 8 μg chromatin was diluted 1:10 (0.01% SDS, 1.1% Triton X-100, 1.2 mM EDTA, 16.7 mM Tris-HCl, pH 8.1, 167 mM NaCl), and 2% of the input was removed from each sample and saved for analysis. Anti-H3K27m3 (Abcam) was added to each sample along with 20 μL of protein A+G magnetic beads (Millipore), and the samples were incubated overnight at 4° C. The beads were washed with low salt, high salt, LiCl, and TE wash buffers sequentially, and the DNA was eluted off the beads with Proteinase K at 62° C. for 2 h (elution buffer: 200 mM NaCl, 1% SDS and 50 mM Tris). The DNA was then analyzed by qPCR.

The next test deals with EO771 cells. As to the kind of experiment: Proliferation, Ki67 staining. In kind it is cell-based, mouse. The conditions noted are these: 24 h. The procedure: (§4) For Ki67 staining, 4T1 and EO771 tumor cells were seeded into 6 well plates and cultured in SF DMEM overnight. They were then treated with various concentrations of emodin (0-50 μM) for 24 h. The cells were resuspended with trypsin plus EDTA and fixed with 1% paraformaldehyde. The cells were then permeabilized with 0.25% Triton X-100 and stained with anti-Ki67 […] (Abcam). The cells were washed and incubated with goat anti-rabbit Alexa 488 (Invitrogen, Eugene, Oreg.). After washing, the samples were analyzed by flow cytometry using a BD FACS flow cytometer and CXP software version 2.2. Data were collected for 10,000 live events per sample.

Test [2] deals with 4T1 cells. Nature of the test: Proliferation, Ki67 staining. In kind it is cell-based, mouse. The conditions noted are these: 24 h. The procedure:
as §4

The mark [3] stands for this setting: 40 mg/kg IP once daily from Day 1.

`Cc1cc(O)c2c(c1)C(=O)c1cc(O)cc(O)c1C2=O` [emodin]: in the test with EO771 tumors (setting [3]), the primary tumor growth result is recorded as “significant inhibition” and the “tumor weight at the endpoint” value is “significant inhibition”. Moreover, in the test on EO771 tumors (F4/80+ cells from tumors, qPCR), the “M1 marker (iNOS) expression in TAMs” value is “significantly higher”; the “M2 marker (Arg1 and CD206) expression in TAMs” value is on record as “significantly lower”. Besides, the “reduction of the number of tumor infiltrating macrophages (F4/80)” value in the test with EO771 tumors (experimental endpoint, 40 mg/kg IP) was 70%. Moreover, the “CD31 staining in tumors, relative to control” value with EO771 tumors (microvessel density, 5 weeks post injection) is reported as roughly 50%. Moreover, in the test on EO771 tumors (qPCR, without statistical significance), the “expression of inflammatory cytokines IL1β and TNFα in TAMs” value is reported as “higher expression levels”. Further, the “macrophage migration toward TCM from emodin-treated tumor cells” value in the test with 4T1 cells [1] is given as “decrease in macrophage migration”. Besides, in the test with 4T1 tumors (setting [3]), the primary tumor growth result is “significant inhibition” and the “tumor weight at the endpoint” value was “significant inhibition”. Moreover, the “fraction of macrophages positive for pSTAT6 and C/EBPβ” value in the test with 4T1 tumors (26 days post implantation) is listed as “significantly reduced”. For the same molecule, in the test with 4T1 tumors (26 days post implantation, tumor size not different), the “number of macrophages in tumors” value is reported as “significantly reduced”. The “H3K27m3 levels on the IRF4 promoter in TAMs” value with 4T1 tumors (ChIP-qPCR) was “significantly increased”. Also, in the test on 4T1 tumors (experimental endpoint, RT-qPCR), the “expression of IRF4 in TAMs” value was “significantly decreased” and the “expression of JMJD3 in TAMs” value is recorded as “significantly decreased”. Moreover, in the test with 4T1 tumors (flow cytometry, CD25), the “activated CD4+ and CD8+ T cells in draining lymph nodes” value is on record as “increased”. In addition, the “IFNγ expression in CD3+ T cells vs control mice” value with 4T1 tumors (qPCR) is given as “two-fold increase”. In addition, the “concentrations with no significant effect on cell proliferation” value in the test on EO771 cells is reported as “less than 50 μM”. Besides, the “concentrations with no significant effect on cell proliferation” value in the test on 4T1 cells [2] was “less than 50 μM”.
